Measured values: ChEMBL document CHEMBL1201862, “PubChem BioAssay data set” (2004)
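Interpolation was linear, between the two tested concentrations surrounding the appropriate level; five concentrations were tested over 48 hours in 96-well plates. GI50 = concentration required for 50% inhibition of growth.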 The source made the active and inactive calls. No stated cut-off is given here; in the data, active = GI50 up to about 1.1 µM and inactive = higher.

Legend:
Assay in all cases: growth of human tumour cells (NCI), 48 h
A549 = system: A549
ACHN = system: ACHN
BT-549 = system: BT-549
HOP-92 = system: HOP-92
Hs-578T = system: Hs-578T
LOX IMVI = system: LOX IMVI
M14 = system: M14
MCF7 = system: MCF7
NCI-H226 = system: NCI-H226
NCI/ADR-RES = system: NCI/ADR-RES
OVCAR-4 = system: OVCAR-4
OVCAR-8 = system: OVCAR-8
RXF 393 = system: RXF 393
SF-295 = system: SF-295
SF-539 = system: SF-539
SK-MEL-28 = system: SK-MEL-28
SNB-19 = system: SNB-19
T47D = system: T47D
UACC-257 = system: UACC-257
UO-31 = system: UO-31

Measured: GI50

[N-]=[N+]=Nc1ccccc1C(=O)N1C(=O)c2ccccc2C(=O)N(C(=O)c2ccccc2N=[N+]=[N-])c2ccccc21
inactive: A549 37.1 µM | ACHN 45.1 µM | BT-549 55.2 µM | HOP-92 23.1 µM | Hs-578T 35.6 µM | LOX IMVI 19.8 µM | M14 > 100 µM | MCF7 52.2 µM | NCI-H226 > 100 µM | NCI/ADR-RES 40.8 µM | OVCAR-4 > 100 µM | OVCAR-8 97.3 µM | RXF 393 27.4 µM | SF-295 41.9 µM | SF-539 43.7 µM | SK-MEL-28 > 100 µM | SNB-19 60.4 µM | T47D 23.1 µM | UACC-257 82.4 µM | UO-31 > 100 µM

O=c1[nH]c2cccc([N+](=O)[O-])c2c(=O)n1-c1ccc(Cl)cc1
inactive: A549 12.4 µM | ACHN 8.51 µM | BT-549 10.7 µM | HOP-92 18.5 µM | Hs-578T 17 µM | LOX IMVI 16.1 µM | M14 10.7 µM | MCF7 9.91 µM | NCI-H226 13.6 µM | NCI/ADR-RES 10.4 µM | OVCAR-4 5.07 µM | OVCAR-8 11.8 µM | RXF 393 17.1 µM | SF-295 1.89 µM | SF-539 12.3 µM | SK-MEL-28 13.4 µM | SNB-19 20 µM | T47D 11 µM | UACC-257 11.5 µM

COc1cc(/N=N/c2cccc(S(N)(=O)=O)c2)c2ccccc2c1N
inactive: A549 14 µM | ACHN 15.5 µM | BT-549 7.33 µM | HOP-92 17.3 µM | Hs-578T 2.67 µM | LOX IMVI 3.4 µM | M14 1.91 µM | MCF7 6.84 µM | NCI-H226 19.9 µM | NCI/ADR-RES 22 µM | OVCAR-4 13.4 µM | OVCAR-8 16.3 µM | RXF 393 15.7 µM | SF-295 10.5 µM | SF-539 3.05 µM | SK-MEL-28 7.11 µM | SNB-19 14.6 µM | T47D 13.2 µM | UACC-257 1.54 µM | UO-31 15.3 µM

CC(=O)N(C(=O)CC(=O)N1N=C(c2ccccc2)C(/N=N/c2ccccc2[N+](=O)[O-])C1=O)c1ccc(Cl)cc1 (stereo not given)
inactive: A549 > 10 µM | ACHN > 10 µM | BT-549 > 10 µM | HOP-92 > 10 µM | Hs-578T > 10 µM | LOX IMVI > 10 µM | MCF7 > 10 µM | NCI-H226 > 10 µM | NCI/ADR-RES > 10 µM | OVCAR-4 > 10 µM | OVCAR-8 > 10 µM | RXF 393 > 10 µM | SF-295 > 10 µM | SF-539 > 10 µM | SK-MEL-28 > 10 µM | SNB-19 > 10 µM | T47D > 10 µM | UACC-257 > 10 µM | UO-31 > 10 µM

COC(=O)c1c2c(cc3c1CC1(Cc4ccc(C(C)=O)cc4C1)C3)CCC2 (stereo not given)
inactive: A549 33.1 µM | ACHN 66.8 µM | BT-549 56.8 µM | HOP-92 93.3 µM | Hs-578T 28.4 µM | LOX IMVI 21.1 µM | MCF7 37.3 µM | NCI-H226 67.1 µM | NCI/ADR-RES 21.3 µM | OVCAR-4 41.4 µM | OVCAR-8 68.9 µM | RXF 393 20.2 µM | SF-295 40.5 µM | SF-539 85.3 µM | SK-MEL-28 63.5 µM | T47D 31.1 µM | UACC-257 25.2 µM | UO-31 52.4 µM

COC(=O)[C@]12CSC[C@H]1C[C@H](c1ccc(N(C)C)cc1)N2
inactive: A549 > 100 µM | ACHN > 100 µM | BT-549 > 100 µM | HOP-92 > 100 µM | Hs-578T > 100 µM | LOX IMVI > 100 µM | M14 > 100 µM | MCF7 > 100 µM | NCI-H226 > 100 µM | NCI/ADR-RES > 100 µM | OVCAR-4 > 100 µM | OVCAR-8 > 100 µM | RXF 393 > 100 µM | SF-295 > 100 µM | SF-539 > 100 µM | SK-MEL-28 > 100 µM | SNB-19 > 100 µM | T47D > 100 µM | UACC-257 > 100 µM | UO-31 > 100 µM

Cc1ccc(-c2nc3cc(Cl)ccc3[nH]2)cc1
inactive: A549 83.4 µM | ACHN 97.5 µM | BT-549 > 100 µM | HOP-92 > 100 µM | Hs-578T > 100 µM | LOX IMVI > 100 µM | M14 > 100 µM | MCF7 > 100 µM | NCI-H226 > 100 µM | NCI/ADR-RES 71.3 µM | OVCAR-4 > 100 µM | OVCAR-8 > 100 µM | RXF 393 > 100 µM | SF-295 > 100 µM | SF-539 > 100 µM | SK-MEL-28 > 100 µM | SNB-19 > 100 µM | T47D > 100 µM | UACC-257 > 100 µM | UO-31 > 100 µM

CC(=O)Oc1c(C)c2c(O)c3c1C1=C(OCOC1=C(C)C3=O)/C(C)=C/C(C)(O)C(O)C(C)C(O)C1C(=O)OC(C(C)C1O)C(C)(O)/C=C\C=C(C)C(=O)N2 (stereo not given)
inactive: A549 76 µM | ACHN 33.9 µM | BT-549 19.7 µM | HOP-92 20.7 µM | Hs-578T 25.7 µM | LOX IMVI 27.4 µM | M14 34.4 µM | MCF7 37.1 µM | NCI-H226 18.1 µM | NCI/ADR-RES 78.3 µM | OVCAR-8 70 µM | RXF 393 18.5 µM | SF-295 38.3 µM | SF-539 10.4 µM | SK-MEL-28 81.5 µM | SNB-19 66.8 µM | T47D > 100 µM | UACC-257 > 100 µM | UO-31 11.1 µM

COc1nc2nccnc2c(=O)n1C
inactive: A549 > 10 µM | ACHN > 10 µM | BT-549 > 10 µM | HOP-92 > 10 µM | Hs-578T > 10 µM | LOX IMVI > 10 µM | M14 > 10 µM | MCF7 > 10 µM | NCI-H226 > 10 µM | NCI/ADR-RES > 10 µM | OVCAR-4 > 10 µM | OVCAR-8 > 10 µM | RXF 393 > 10 µM | SF-295 > 10 µM | SF-539 > 10 µM | SK-MEL-28 > 10 µM | SNB-19 > 10 µM | T47D > 10 µM | UACC-257 > 10 µM | UO-31 > 10 µM

COc1cc(C(c2c(O)c3ccccc3oc2=O)c2c(O)c3ccccc3oc2=O)ccc1O
inactive: A549 59.7 µM | ACHN 22.6 µM | BT-549 19.1 µM | HOP-92 14.6 µM | Hs-578T 40.4 µM | LOX IMVI 24.6 µM | M14 18.1 µM | MCF7 19.3 µM | NCI-H226 50.4 µM | NCI/ADR-RES 28.6 µM | OVCAR-4 49.1 µM | OVCAR-8 27.7 µM | RXF 393 18 µM | SF-295 35.1 µM | SF-539 23.3 µM | SK-MEL-28 16.7 µM | SNB-19 26.8 µM | T47D 17.9 µM | UACC-257 19.1 µM | UO-31 25.1 µM
